The values below come from paper PMC12679539, “Synthesis and evaluation of nitroheterocyclic aromatic adamantane amides with trypanocidal activity. Part II” (RSC Medicinal Chemistry, 2025).

Series [1] deals with bloodstream-form Trypanosoma brucei. The series can be described thus: Activity against bloodstream-form Trypanosoma brucei (Alamar Blue growth inhibition). Conditions: for S.I. (selectivity index): ratio of IC50 values obtained with L6 cells and T. brucei; for IC50 / IC90: Trypanosoma brucei, bloodstream form; for IC50: concentration that inhibits growth by 50%, read-out: T. brucei IC50; for IC90: concentration that inhibits growth by 90%, read-out: T. brucei IC90. The format is cell-based, Trypanosoma brucei (strain 427). On the procedure:
Bloodstream form T. brucei (strain 427) were cultured at 37 °C in modified Iscove's medium. Trypanocidal activity was assessed by growing parasites in microtiter plates in the presence of various drug concentrations. […] The plates were incubated for 48 hours at 37 °C and 20 μL Alamar Blue was then added to each well. After an additional overnight incubation, the fluorescence was determined using a Gemini fluorescent plate reader (Molecular Devices). Inhibition of growth was calculated by comparison with control values and IC50 and IC90 values were determined in triplicate using linear regression analysis.
For orientation: Resazurin is reduced to fluorescent resorufin, in cell work by metabolically active cells.

The test system is the same in series [2]. Conditions: read-out: T. brucei IC50; cited from earlier work.
The test system of series [3] is T. cruzi epimastigotes. To be noted: read-out: T. cruzi (epimastigotes) IC50; cited from earlier work.
The test system of series [4] is T. cruzi epimastigotes. The series can be described thus: Activity against Trypanosoma cruzi epimastigotes (Alamar Blue growth inhibition). The format is cell-based, Trypanosoma cruzi (strain CL Brener). To be noted: CL Brener. On the procedure:
Trypanocidal activity was assessed by growing parasites in microtiter plates in the presence of various drug concentrations. […] The plates were incubated for 4 days at 28 °C and 20 μL Alamar Blue (Biosource UK Ltd) was then added to each well. After an additional 3 days incubation, the fluorescence was determined using a Gemini fluorescent plate reader (Molecular Devices). Inhibition of growth was calculated by comparison with control values and IC50 and IC90 values were determined in triplicate using linear regression analysis.

In series [5] the test system is T. cruzi intracellular amastigotes. The series can be described thus: microbe, parasite or virus in culture. The format is cell-based, Trypanosoma cruzi CL Brener PpyRE9h:mScarlet. Conditions: Trypanosoma cruzi, 120 h; in HeLa cells, 5 days. On the procedure:
Assays were performed in 96-well black (clear bottom) microtitre plates (Corning Inc.). HeLa ^† cells were seeded at 10^4 per well, incubated for 3 days, and then infected with T. cruzi CL Brener PpyRE9h : mScarlet[25] culture form trypomastigotes (1 : 1 multiplicity of infection). After 16 hours, extracellular parasites were removed by washing in growth medium (×3), test compounds were added, and the plates incubated for 5 days. Fluorescence intensities were then determined using a BMG FLUOstar Omega plate reader (ex 545 nm, em 590 nm), and the data analysed using GraphPad Prism 9.0 software. The values were expressed as IC50/90 ± SD and are the mean of triplicate experiments.

Series [6] has as its system L6 cells. On the set-up: method as in PMID 26479031. Conditions: cytotoxicity; cited from earlier work.
In series [7] the test system is L6 cells. The series can be described thus: Cytotoxic activity against rat skeletal myoblast L6 cells (Alamar Blue). Conditions: 120 h, cytotoxicity, 5 days. The format is cell-based. Here is the method:
The cytotoxicity against mammalian cells was assessed using microtitre plates. Briefly, L6 cells (a rat skeletal muscle line) were seeded at 1 × 10^4 mL^−1 in 200 μL of RPMI-1640 growth medium (with 10% fetal calf serum) containing 7 different compound concentrations in a range previously established to encompass both the IC50 and IC90 values. The plates were incubated for 5 days at 37 °C and 20 μL Alamar Blue (Biosource Ltd, Wilton, North Yorkshire England.) was then added to each well. After an additional 8 hours incubation, the fluorescence was determined using a Gemini fluorescent plate reader (Molecular Devices). Inhibition of growth was calculated by comparison with control values and IC50 and IC90 values were determined in triplicate using linear regression analysis.

Series [8] deals with L. infantum promastigotes. The series can be described thus: Activity against Leishmania infantum promastigotes (resazurin assay). Format: cell-based, Leishmania infantum (MHOM/MA/67/ITMAP-263). To be noted: for IC50: Leishmania infantum, promastigotes, 72 h, 95% CI in brackets. Here is the method: Promastigotes from the L. infantum strain (MHOM/MA/67/ITMAP-263) were cultivated in 5 ml of Schneider's insect medium, which was supplemented with 10% heat-inactivated fetal bovine serum (FBS), 200 U ml^−1 of penicillin/streptomycin, 6 μg ml^−1 of phenol red, and 5 mM of HEPES. The cultures were maintained in an incubator at 27 °C and diluted to a concentration of 2 × 10^5 cells per ml every 5 days. For the assays the parasites used were equivalent to late/log with two or three days of culture.
The efficacy of the compounds against L. infantum promastigotes was evaluated using a resazurin-based assay. Parasites were added to 100 μl of serial dilutions of the compounds in supplemented complete medium at a cell density of 5 × 10^5 ml^−1. As a quality control, a dose–response curve with the antileishmanial drug miltefosine was included in all assays. The final volume of each assay was 200 μl per well, and each condition was tested in duplicate. After a 72-hour incubation under specific conditions for each parasite, 20 μl of a 0.5 mM resazurin solution was added, and the plates were incubated for an additional 4 hours under the same conditions. Fluorescence was measured at 544 nm for excitation and 590 nm for emission using a Synergy 2 Multi-Mode Reader (Biotek, Winooski, VT, USA). Results were expressed as the percentage of parasite growth inhibition compared to controls (untreated parasites) and represent the average of at least three independent experiments. The effect was evaluated by determining the IC50 value (the concentration required to inhibit 50% growth), calculated using non-linear regression curves via GraphPad Prism version 8.1.1 for Windows (GraphPad Software, San Diego, CA, USA).

Series [9] can be described thus: Cytotoxicity on THP-1-derived macrophages (MTT assay). Format: cell-based. To be noted: human, THP-1-derived macrophages (PMA-differentiated), value or interval. Here is the method:
The THP-1 cell line, a human leukemia line (ATCC® TIB-202™), was cultured in RPMI-1640 medium supplemented with 10% heat-inactivated fetal bovine serum (FBS), 2 mM. L-Glutamine, 100 IU mL^−1 penicillin/streptomycin, and 20 mM HEPES. The cells were maintained in a humidified incubator at 37 °C with 5% CO2. Subculturing was performed every three days, using 20 mL of media at a concentration of 2 × 10^5 cells per mL in a T75 flask. All cell culture reagents were purchased from Lonza Bioscience (Morrisville, NC).
The cytotoxicity of the compounds on THP-1-derived macrophages was evaluated using the colorimetric MTT assay (3-(4,5-dimethylthiazol-2-yl)-2,5-diphenyltetrazolium bromide), as described in Magoulas et al. (2021).[28] THP-1 cells were suspended in complete RPMI medium at a density of 1 × 10^6 cells per mL, and 100 μL of this suspension was seeded into each well of a 96-well plate. The cells were differentiated into macrophages by adding 40 ng mL^−1 of phorbol-myristate 13-acetate (PMA, Sigma, Saint Louis, MI, USA) for 24 hours, followed by replacement with fresh medium for an additional 24 hours. Subsequently, the cells were incubated with 100 μL of various compounds, diluted in complete RPMI medium, at concentrations ranging from 100 to 12.5 μM. Each condition was tested in triplicate. After 72 hours of incubation at 37 °C with 5% CO2, the medium was removed, and 200 μL of a 0.5 mg mL^−1 MTT solution, diluted in RPMI, was added to each well. The plates were incubated for an additional 4 hours. Following this incubation, 160 μL of the medium was removed and replaced with 160 μL of 2-propanol. Absorbance was measured at 570 nm using a Synergy 2 Multi-Mode Reader (Biotek, Winooski, VT, USA). Cytotoxicity was determined by presenting the CC50 (the concentration of the drug that reduces cell viability by 50%) interval or by calculating the CC50 value through non-linear regression analysis using GraphPad Prism version 8.1.1 for Windows (GraphPad Software, San Diego, CA, USA). The results represent the average of at least three independent experiments.
Background: Tetrazolium dyes change colour on reduction, which living cells bring about.

Series [10] has as its system L. infantum intracellular amastigotes. The series can be described thus: Activity against intracellular L. infantum amastigotes in THP-1 derived macrophages (luciferase). The format is cell-based, Leishmania infantum (MHOM/MA/67/ITMAP-263). To be noted: for inhibition at 10 µM / IC50: Leishmania infantum; for inhibition at 10 µM: read-out: L. infantum (intracellular amastigotes) % of growth inhibition at 10 μM ± ST DEV; for IC50: read-out: L. infantum (intracellular amastigotes) IC50 (μM), 95% CI. Here is the method:
Leishmania infantum Luciferase-expressing L. infantum (strain MHOM/MA/67/ITMAP-263) axenic amastigotes were cultured in MAA/20 medium at 37 °C with 5% CO2, as described by Sereno et al. 1998.[26] The parasites were maintained in 5 mL T25 ventilated flasks and subcultured every seven days at a concentration of 1 × 10^6 cells per mL.
The activity against intracellular amastigotes of L. infantum was evaluated using a modified method described by Santarem, Tavares, and Cordeiro-da-Silva (2019).[27] THP-1 cells were differentiated into macrophages using PMA, as previously outlined. The differentiated macrophages were then infected with L. infantum axenic amastigotes expressing episomal luciferase at a macrophage-to-amastigote ratio of 1 : 10 for four hours at 37 °C in a 5% CO2 atmosphere. After this incubation, non-internalized parasites were washed away, and various concentrations of test compounds were added in a final volume of 100 μL. A dose–response curve for miltefosine was included in all assays to serve as a quality control. Each experimental condition was tested in quadruplicate. After 72 hours of incubation, the medium was replaced with 100 μL of PBS, and 25 μL of Glo-lysis buffer from the Steady-Glo Luciferase Assay System (Promega, Madison, WI, USA) was added. The plates were then agitated at 100 rpm for 10 minutes at room temperature. Following this, 30 μL of the Steady-Glo reagent (Promega, Madison, WI, USA) was added, and the mixture was incubated for 15 minutes in the dark under the same conditions. A total of 140 μL from each well was transferred to white-bottom 96-well plates, and luminescence intensity was measured using a Synergy 2 Multi-Mode Reader (Biotek, Winooski, VT, USA). The antileishmanial effect was assessed by comparing the results with those from non-treated infected cells. The IC50 value were determined through non-linear regression analysis using GraphPad Prism version 8.1.1 for Windows (GraphPad Software, San Diego, CA, USA). Results represent the average of at least three independent experiments.

Like-named read-outs stand apart in the source and are kept apart here.

As to `CC1CS(=O)(=O)CCN1/N=C/c1ccc([N+](=O)[O-])o1` (stereo not shown) [Nfx, nifurtimox], the “S.I. (selectivity index)” value in [1] was 7. Moreover, the 50% inhibitory concentration (IC50) (as a rule, the concentration that inhibits the measured activity by half) in [2] is 4.4 ± 0.7 µM; with T. cruzi epimastigotes [3], 3.1 ± 0.5 µM.
In the case of `O=C(Cn1ccnc1[N+](=O)[O-])NCc1ccccc1` [Bzn, benznidazole, reference compound], the values for the half-maximal inhibitory concentration (IC50) (with T. cruzi epimastigotes [4]; in [5]; in the series with L6 cells [6]) were 5400 ± 200 nM, 1040 ± 320 nM and 510 ± 22 µM, respectively. Besides, in [5], the 90% effect level (IC90) was put at 2.54 ± 0.81 µM.
Turning to `O=C(NCCCn1cnc([N+](=O)[O-])n1)c1ccc(C23CC4CC(CC(C4)C2)C3)cc1` [6d, 4-(1-Adamantyl)-N-[3-(3-nitro-1H-1,2,4-triazol-1-yl)propyl] benzamide], the half-inhibitory concentration (IC50) in [1] worked out at 180 ± 50 nM; with L6 cells [7], 22 ± 1 µM; in the series on T. cruzi epimastigotes [4], 450 ± 10 nM; in series [5] it was 3730 ± 440 nM; in series [8], 0.27 µM. Moreover, the figures for the IC90 (in series [1]; in the series with T. cruzi epimastigotes [4]; in series [5]) were 310 ± 40 nM, 1100 ± 20 nM and 8.42 ± 0.44 µM, respectively. The “S.I. (selectivity index)” value in [1] was determined as 123. For the same compound, the half-maximal cytotoxic concentration (CC50) (usually the concentration at which the toxic effect on the cells reaches its halfway point) at 72 h in [9] lay within 50 to 100 µM.
As for `O=C(CCc1ccc(C23CC4CC(CC(C4)C2)C3)cc1)NCCCn1cnc([N+](=O)[O-])n1` [6f, 3-[4-(1-Adamantyl)phenyl]-N-[3-(3-nitro-1H-1,2,4-triazol-1-yl)propyl]propanamide], the half-maximal inhibitory concentration (IC50) is 140 ± 20 nM in series [1]; 19 ± 2 µM with L6 cells [7]; 440 ± 20 nM in the series on T. cruzi epimastigotes [4]; 2440 ± 570 nM in series [5]; 0.39 µM in series [8]. Further, the concentration for an effect of 90% (IC90) – broadly, the point of the concentration-response curve where the effect stands at 90% – in series [1] was determined as 280 ± 10 nM; in the series with T. cruzi epimastigotes [4], 910 ± 10 nM; in [5], 8.23 ± 1.78 µM. For the same compound, the “S.I. (selectivity index)” value in series [1] is 134. In addition, the half-maximal cytotoxic concentration (CC50) at 72 h in [9] lay within 50 to 100 µM.
In the case of `O=C(NCc1ccc(C2C3CC4CC(C3)CC2C4)cc1)c1ccc([N+](=O)[O-])o1` (stereo not shown) [2b, N-[4-(2-Adamantyl)benzyl]-5-nitrofuran-2-carboxamide], the IC50 in [1] is 17 ± 3 nM; in the series on L6 cells [7], 1.6 ± 0.1 µM; in the series on T. cruzi epimastigotes [4] it was 560 ± 20 nM; in series [8], 0.09 µM; in [10] (THP-1, 72 h) it was 3.97 µM. For the same compound, the figures for the IC90 (in [1]; in the series on T. cruzi epimastigotes [4]) were 31 ± 1 nM and 1200 ± 20 nM, respectively. Also, the “S.I. (selectivity index)” value in [1] stood at 95. Further, the inhibition – broadly, the drop in the measured response relative to a control, in per cent – at 10 µM in series [10] (THP-1, 72 h) amounted to 84.6 ± 15.6%. The cytotoxic concentration (CC50) at 72 h in [9] fell in the range of 12.5 to 25 µM.
Turning to `CCCCCCCCCCCCCCCCOP(=O)([O-])OCC[N+](C)(C)C` [MF, miltefosine, reference compound], the half-maximal inhibitory concentration (IC50) in series [8] worked out at 11.9 µM; in [10] (THP-1 derived macrophages, 72 h, 95% CI in brackets), 2.65 µM. Also, the “SI (promastigotes) CC50/Li IC50” value in [8] (THP-1 CC50 / L. infantum promastigote IC50) is 2.5. Also, in series [10] (THP-1, 72 h), the inhibition at 10 µM came to 92 ± 5%. Moreover, the “SI (intracellular amastigotes) CC50/Li ia IC50” value in series [10] (THP-1 CC50 / L. infantum intracellular amastigote IC50) is 11.3. Besides, the CC50 at 72 h in series [9] is 30 µM.
